From US12077503B2, “Substituted cyclic amides and their use as herbicides” (FMC CORPORATION, priority 2015, dated 2024)

Columns and labels:
Format in all cases: in vivo
[1] = tested on: redroot pigweed (Amaranthus retroflexus); assay: Test G Post-Emergence Protocol; settings: Amaranthus retroflexus, post-emergence, 312 h; for pest or weed control at 15.625 g/ha: 15.625 g ai/ha, evaluated after 13 days (100=total damage to plant; 0=no damage to plant), read-out: Pigweed, Redroot damage rating; for pest or weed control at 62.5 g/ha: 62.5 g ai/ha, read-out: Pigweed, Redroot damage rating (100=total damage to plant; 0=no damage to plant); for pest or weed control at 62.5 g/ha / pest or weed control at 250 g/ha: evaluated after 13 days; for pest or weed control at 250 g/ha: 250 g ai/ha, read-out: damage to plant, Pigweed, Redroot (100=total damage to plant; 0=no damage to plant)
Outline: (§1)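 Foliar application was made 8 days after sowing, using an aqueous spray of the active in acetone/water (50:50) with 0.5% Tween 20, at doses of 15.625, 62.5 or 250 g/ha. Injury was assessed 13 days later, where 100 meant the plant was fully damaged.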

[2] = tested on: barnyardgrass (Echinochloa crus-galli); assay: Test G Post-Emergence Protocol; settings: Echinochloa crus-galli, post-emergence, 312 h; for pest or weed control at 15.625 g/ha: 15.625 g ai/ha, evaluated after 13 days (100=total damage to plant; 0=no damage to plant), read-out: Barnyardgrass damage rating; for pest or weed control at 62.5 g/ha: 62.5 g ai/ha, read-out: Barnyardgrass damage rating (100=total damage to plant; 0=no damage to plant); for pest or weed control at 62.5 g/ha / pest or weed control at 250 g/ha: evaluated after 13 days; for pest or weed control at 250 g/ha: 250 g ai/ha, read-out: damage to plant, Barnyardgrass (100=total damage to plant; 0=no damage to plant)
Outline: as §1

[3] = tested on: giant foxtail (Setaria faberi); assay: Test G Post-Emergence Protocol; settings: Setaria faberi, post-emergence, 312 h; for pest or weed control at 15.625 g/ha: 15.625 g ai/ha, evaluated after 13 days (100=total damage to plant; 0=no damage to plant), read-out: Foxtail, Giant damage rating; for pest or weed control at 62.5 g/ha: 62.5 g ai/ha, read-out: Foxtail, Giant damage rating (100=total damage to plant; 0=no damage to plant); for pest or weed control at 62.5 g/ha / pest or weed control at 250 g/ha: evaluated after 13 days; for pest or weed control at 250 g/ha: 250 g ai/ha, read-out: damage to plant, Foxtail, Giant (100=total damage to plant; 0=no damage to plant)
Outline: as §1

corn (Zea mays) [4] = assay: Test G Post-Emergence Protocol; settings: Zea mays, post-emergence, 312 h; for plant injury at 15.625 g/ha: 15.625 g ai/ha, evaluated after 13 days (100=total damage to plant; 0=no damage to plant), read-out: Corn damage rating; for plant injury at 62.5 g/ha: 62.5 g ai/ha, read-out: Corn damage rating (100=total damage to plant; 0=no damage to plant); for plant injury at 62.5 g/ha / plant injury at 250 g/ha: evaluated after 13 days; for plant injury at 250 g/ha: 250 g ai/ha, read-out: damage to plant, Corn (100=total damage to plant; 0=no damage to plant)
Outline: as §1

[5] = tested on: ivy-leaved morning glory (Ipomoea hederacea); assay: Test G Post-Emergence Protocol; settings: Ipomoea, post-emergence, 312 h; for pest or weed control at 15.625 g/ha: 15.625 g ai/ha, evaluated after 13 days (100=total damage to plant; 0=no damage to plant), read-out: Morningglory, Ivy-leaved damage rating; for pest or weed control at 62.5 g/ha: 62.5 g ai/ha, read-out: Morningglory, Ivy-leaved damage rating (100=total damage to plant; 0=no damage to plant); for pest or weed control at 62.5 g/ha / pest or weed control at 250 g/ha: evaluated after 13 days; for pest or weed control at 250 g/ha: 250 g ai/ha, read-out: damage to plant, Morningglory, Ivy-leaved (100=total damage to plant; 0=no damage to plant)
Outline: as §1

[6] = tested on: velvetleaf (Abutilon theophrasti); assay: Test G Post-Emergence Protocol; settings: Abutilon theophrasti, post-emergence, 312 h; for pest or weed control at 15.625 g/ha: 15.625 g ai/ha, evaluated after 13 days (100=total damage to plant; 0=no damage to plant), read-out: Velvetleaf damage rating; for pest or weed control at 62.5 g/ha: 62.5 g ai/ha, read-out: Velvetleaf damage rating (100=total damage to plant; 0=no damage to plant); for pest or weed control at 62.5 g/ha / pest or weed control at 250 g/ha: evaluated after 13 days; for pest or weed control at 250 g/ha: 250 g ai/ha, read-out: damage to plant, Velvetleaf (100=total damage to plant; 0=no damage to plant)
Outline: as §1

[7] = tested on: redroot pigweed (Amaranthus retroflexus); assay: Test G Pre-Emergence Protocol; settings: Amaranthus retroflexus, pre-emergence, 312 h, evaluated after 13 days; for pest or weed control at 15.625 g/ha: 15.625 g ai/ha; for pest or weed control at 15.625 g/ha / pest or weed control at 250 g/ha: read-out: Pigweed, Redroot damage rating (100=total damage to plant; 0=no damage to plant); for pest or weed control at 62.5 g/ha: 62.5 g ai/ha, 100=total damage to plant, 0=no damage to plant, read-out: plant damage rating, Pigweed, Redroot; for pest or weed control at 250 g/ha: 250 g ai/ha
Outline: (§2)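 One day after sowing, pots are treated with a spray of test compound formulated in acetone/water 50:50 plus 0.5% Tween 20, giving 15.625, 62.5 or 250 g/ha. Evaluation on a 0–100 damage scale follows 13 days of glasshouse growth.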

[8] = tested on: barnyardgrass (Echinochloa crus-galli); assay: Test G Pre-Emergence Protocol; settings: Echinochloa crus-galli, pre-emergence, 312 h, evaluated after 13 days; for pest or weed control at 15.625 g/ha: 15.625 g ai/ha, read-out: Barnyard grass damage rating (100=total damage to plant; 0=no damage to plant); for pest or weed control at 62.5 g/ha: 62.5 g ai/ha, 100=total damage to plant, 0=no damage to plant, read-out: plant damage rating, Barnyardgrass; for pest or weed control at 250 g/ha: 250 g ai/ha, read-out: Barnyardgrass damage rating (100=total damage to plant; 0=no damage to plant)
Outline: as §2

[9] = tested on: giant foxtail (Setaria faberi); assay: Test G Pre-Emergence Protocol; settings: Setaria faberi, pre-emergence, 312 h, evaluated after 13 days; for pest or weed control at 15.625 g/ha: 15.625 g ai/ha; for pest or weed control at 15.625 g/ha / pest or weed control at 250 g/ha: read-out: Foxtail, Giant damage rating (100=total damage to plant; 0=no damage to plant); for pest or weed control at 62.5 g/ha: 62.5 g ai/ha, 100=total damage to plant, 0=no damage to plant, read-out: plant damage rating, Foxtail, Giant; for pest or weed control at 250 g/ha: 250 g ai/ha
Outline: as §2

corn (Zea mays) [10] = assay: Test G Pre-Emergence Protocol; settings: Zea mays, pre-emergence, 312 h, evaluated after 13 days; for plant injury at 15.625 g/ha: 15.625 g ai/ha; for plant injury at 15.625 g/ha / plant injury at 250 g/ha: read-out: Corn damage rating (100=total damage to plant; 0=no damage to plant); for plant injury at 62.5 g/ha: 62.5 g ai/ha, 100=total damage to plant, 0=no damage to plant, read-out: plant damage rating, Corn; for plant injury at 250 g/ha: 250 g ai/ha
Outline: as §2

[11] = tested on: ivy-leaved morning glory (Ipomoea hederacea); assay: Test G Pre-Emergence Protocol; settings: Ipomoea, pre-emergence, 312 h, evaluated after 13 days; for pest or weed control at 15.625 g/ha: 15.625 g ai/ha, read-out: Morning-glory, Ivy-leaved damage rating (100=total damage to plant; 0=no damage to plant); for pest or weed control at 62.5 g/ha: 62.5 g ai/ha, 100=total damage to plant, 0=no damage to plant, read-out: plant damage rating, Morningglory, Ivy-leaved; for pest or weed control at 250 g/ha: 250 g ai/ha, read-out: Morningglory, Ivy-leaved damage rating (100=total damage to plant; 0=no damage to plant)
Outline: as §2

[12] = tested on: velvetleaf (Abutilon theophrasti); assay: Test G Pre-Emergence Protocol; settings: Abutilon theophrasti, pre-emergence, 312 h, evaluated after 13 days; for pest or weed control at 15.625 g/ha: 15.625 g ai/ha; for pest or weed control at 15.625 g/ha / pest or weed control at 250 g/ha: read-out: Velvetleaf damage rating (100=total damage to plant; 0=no damage to plant); for pest or weed control at 62.5 g/ha: 62.5 g ai/ha, 100=total damage to plant, 0=no damage to plant, read-out: plant damage rating, Velvetleaf; for pest or weed control at 250 g/ha: 250 g ai/ha
Outline: as §2

SMILES | pest or weed control at 15.625 g/ha [1] [%] | pest or weed control at 62.5 g/ha [1] [%] | pest or weed control at 250 g/ha [1] [%] | pest or weed control at 15.625 g/ha [2] [%] | pest or weed control at 62.5 g/ha [2] [%] | pest or weed control at 250 g/ha [2] [%] | pest or weed control at 15.625 g/ha [3] [%] | pest or weed control at 62.5 g/ha [3] [%] | pest or weed control at 250 g/ha [3] [%] | plant injury at 15.625 g/ha (corn (Zea mays) [4]) [%] | plant injury at 62.5 g/ha (corn (Zea mays) [4]) [%] | plant injury at 250 g/ha (corn (Zea mays) [4]) [%] | pest or weed control at 15.625 g/ha [5] [%] | pest or weed control at 62.5 g/ha [5] [%] | pest or weed control at 250 g/ha [5] [%] | pest or weed control at 15.625 g/ha [6] [%] | pest or weed control at 62.5 g/ha [6] [%] | pest or weed control at 250 g/ha [6] [%] | pest or weed control at 15.625 g/ha [7] [%] | pest or weed control at 62.5 g/ha [7] [%] | also measured
Cc1ccc(NC(=O)[C@@H]2C(=O)N(C)C[C@H]2c2ccc(C(F)(F)F)cc2)c(F)c1 (racemic) [Compound 1591] | 0 | 10 | 10 | 0 | 30 | 50 | 0 | 70 | 80 | 0 | 0 | 10 | 0 | 10 | 10 | 0 | 0 | 10 | 0 | 0 | pest or weed control at 250 g/ha [7]: 0%; pest or weed control at 15.625 g/ha [8]: 0%; pest or weed control at 62.5 g/ha [8]: 50%; pest or weed control at 250 g/ha [8]: 70%; pest or weed control at 15.625 g/ha [9]: 0%; pest or weed control at 62.5 g/ha [9]: 70%; pest or weed control at 250 g/ha [9]: 80%; plant injury at 15.625 g/ha (corn (Zea mays) [10]): 0%; plant injury at 62.5 g/ha (corn (Zea mays) [10]): 10%; plant injury at 250 g/ha (corn (Zea mays) [10]): 0%; pest or weed control at 15.625 g/ha [11]: 0%; pest or weed control at 62.5 g/ha [11]: 0%; pest or weed control at 250 g/ha [11]: 0%; pest or weed control at 15.625 g/ha [12]: 0%; pest or weed control at 62.5 g/ha [12]: 0%; pest or weed control at 250 g/ha [12]: 10%
CN1C[C@@H](c2ccc(Cl)nc2)[C@H](C(=O)Nc2cccc(F)c2F)C1=O (racemic) [Compound 1462] | 0 | 0 | 0 | 0 | 20 | 30 | 0 | 50 | 70 | 0 | 0 | 10 | 0 | 20 | 10 | 0 | 0 | 0 | 0 | 0 | pest or weed control at 250 g/ha [7]: 0%; pest or weed control at 15.625 g/ha [8]: 20%; pest or weed control at 62.5 g/ha [8]: 50%; pest or weed control at 250 g/ha [8]: 80%; pest or weed control at 15.625 g/ha [9]: 0%; pest or weed control at 62.5 g/ha [9]: 70%; pest or weed control at 250 g/ha [9]: 80%; plant injury at 15.625 g/ha (corn (Zea mays) [10]): 0%; plant injury at 62.5 g/ha (corn (Zea mays) [10]): 0%; plant injury at 250 g/ha (corn (Zea mays) [10]): 0%; pest or weed control at 15.625 g/ha [11]: 0%; pest or weed control at 62.5 g/ha [11]: 0%; pest or weed control at 250 g/ha [11]: 50%; pest or weed control at 15.625 g/ha [12]: 0%; pest or weed control at 62.5 g/ha [12]: 0%; pest or weed control at 250 g/ha [12]: 0%
